In patent US7781591B2, “Substituted 3-cyanopyridines as protein kinase inhibitors” (Wyeth LLC, priority 2006, dated 2010) one finds IC50 data, which are given here for 15 molecules.

The term IC50 denotes the concentration that inhibits the measured activity by half.

The assay deals with T1, human PKCθ full length enzyme (Homo sapiens, UniProt Q04759).
T1 construct: human PKCθ full length enzyme (Panvera Cat# P2996); purchased Panvera P2996
T1 sequence (Q04759 whole entry): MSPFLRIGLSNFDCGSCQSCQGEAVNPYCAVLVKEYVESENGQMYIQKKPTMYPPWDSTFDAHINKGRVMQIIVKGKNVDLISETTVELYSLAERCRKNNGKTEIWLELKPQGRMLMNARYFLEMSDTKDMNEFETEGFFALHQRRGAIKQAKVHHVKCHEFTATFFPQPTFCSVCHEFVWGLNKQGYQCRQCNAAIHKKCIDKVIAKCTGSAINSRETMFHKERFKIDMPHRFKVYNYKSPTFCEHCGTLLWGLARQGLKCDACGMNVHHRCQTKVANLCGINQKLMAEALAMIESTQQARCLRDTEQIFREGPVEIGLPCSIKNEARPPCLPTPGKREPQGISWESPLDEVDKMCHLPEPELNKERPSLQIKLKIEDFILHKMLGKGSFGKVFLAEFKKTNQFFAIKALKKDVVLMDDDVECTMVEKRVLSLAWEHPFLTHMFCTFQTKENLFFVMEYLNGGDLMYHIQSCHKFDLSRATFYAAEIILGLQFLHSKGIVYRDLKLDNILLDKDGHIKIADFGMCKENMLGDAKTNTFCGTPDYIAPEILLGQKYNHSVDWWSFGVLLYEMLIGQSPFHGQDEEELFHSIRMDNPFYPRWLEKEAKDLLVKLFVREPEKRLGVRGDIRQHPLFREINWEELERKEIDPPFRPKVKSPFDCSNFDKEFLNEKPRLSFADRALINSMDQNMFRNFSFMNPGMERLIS
Briefly: PKCθ IMAP assay (fluorescence polarization). In kind it is biochemical. Conditions: human PKCθ full length enzyme, IMAP; average value; read-out: IC50 PKCθ IMAP. In general terms: Fluorescence polarisation rises when a labelled molecule tumbles more slowly, as on binding a larger partner.
Take `COc1cc(-c2cncc(C#N)c2Nc2ccc3[nH]ccc3c2C)ccc1OCCN1CCN(C)CC1` [Compound 377, 5-{3-methoxy-4-[2-(4-methylpiperazin-1-yl)ethoxy]phenyl}-4-[(4-methyl-1H-indol-5-yl)amino]nicotinonitrile]: the 50% inhibitory concentration (IC50) is 10 nM.

On to `Cc1c(Nc2c(C#N)cncc2-c2ccc(OCCNCCCO)cc2)ccc2[nH]ccc12` [Compound 415, 5-(4-{2-[(3-hydroxypropyl)amino]ethoxy}phenyl)-4-[(4-methyl-1H-indol-5-yl)amino]nicotinonitrile], for which the 50% inhibitory concentration (IC50) came to 5 nM.

In the case of `N#Cc1cncc(-c2cc3cc(CNCC4CC4)ccc3s2)c1Nc1cccc2[nH]ccc12` [Compound 279, 5-(5-{[(cyclopropylmethyl)amino]methyl}-1-benzothien-2-yl)-4-(1H-indol-4-ylamino)nicotinonitrile], the IC50 turned out to be 1 nM.

As for `Cc1c(Nc2c(C#N)cncc2-c2ccc(OCCCN(C)C)nc2)ccc2[nH]ccc12` [Compound 357, 6′-[3-(dimethylamino)propoxy]-4-[(4-methyl-1H-indol-5-yl)amino]-3,3′-bipyridine-5-carbonitrile], the IC50 was found to be 30 nM.

For `N#Cc1cncc(-c2cc3ccccc3s2)c1Nc1cccc2[nH]ccc12` [Compound 322, 5-(1-benzothien-2-yl)-4-(1H-indol-4-ylamino)nicotinonitrile], the 50% inhibitory concentration (IC50) was determined as 20 nM.

With `Cc1c(Nc2c(C#N)cncc2-c2ccnc(Cl)c2)ccc2[nH]ccc12` [Compound 469, 2′-chloro-4-[(4-methyl-1H-indol-5-yl)amino]-3,4′-bipyridine-5-carbonitrile], the IC50 was found to be 31 nM.

With `N#Cc1cncc(-c2cccc(-c3cccs3)c2)c1Nc1ccc2[nH]ccc2c1` [Compound 136, 4-(1H-indol-5-ylamino)-5-[3-(2-thienyl)phenyl]nicotinonitrile], the IC50 was 130 nM.

As for `Cc1c(Nc2c(C#N)cncc2-c2ccc(OCCN3CCN(C)CC3)cc2Cl)ccc2[nH]ccc12` [Compound 470, 5-{2-chloro-4-[2-(4-methylpiperazin-1-yl)ethoxy]phenyl}-4-[(4-methyl-1H-indol-5-yl)amino]nicotinonitrile], the IC50 was determined as 107 nM.

Regarding `N#Cc1cncc(-c2cccc(-c3ccc(C=O)s3)c2)c1Nc1ccc2[nH]ccc2c1` [Compound 150, 5-[3-(5-formyl-2-thienyl)phenyl]-4-(1H-indol-5-ylamino)nicotinonitrile], the IC50 came out at 120 nM.

On to `COc1ccc(-c2cncc(C#N)c2Nc2cccc3[nH]ccc23)cc1OCCN1CCN(C)CC1` [Compound 300, 4-(1H-indol-4-ylamino)-5-{4-methoxy-3-[2-(4-methylpiperazin-1-yl)ethoxy]phenyl}nicotinonitrile], for which the 50% inhibitory concentration (IC50) amounted to 20 nM.

For `Cc1c(Nc2c(C#N)cncc2-c2cccc(N(C)C)c2)ccc2[nH]ccc12` [Compound 575, 5-[3-(dimethylamino)phenyl]-4-[(4-methyl-1H-indol-5-yl)amino]nicotinonitrile], the half-inhibitory concentration (IC50) came out at 36 nM.

With `CNCCNC(=O)c1ccc(-c2cccc(-c3cncc(C#N)c3Nc3ccc4[nH]ccc4c3)c2)cc1` [Compound 211, 3′-[5-cyano-4-(1H-indol-5-ylamino)pyridin-3-yl]-N-[2-(methylamino)ethyl]biphenyl-4-carboxamide], the IC50 was determined as 330 nM.

Regarding `COc1cccc(-c2cncc(C#N)c2Nc2ccc3[nH]ccc3c2C)c1` [Compound 558, 5-(3-methoxyphenyl)-4-[(4-methyl-1H-indol-5-yl)amino]nicotinonitrile], the half-inhibitory concentration (IC50) was found to be 36 nM.

Take `COc1ccc(-c2cncc(C#N)c2NC[C@H]2CC[C@H](CN)CC2)cc1OC` [Compound 441, 4-({[trans-4-(aminomethyl)cyclohexyl]methyl}amino)-5-(3,4-dimethoxyphenyl)nicotinonitrile]: the half-maximal inhibitory concentration (IC50) stood at 529 nM.

For `Cc1ccc(-c2cccc(-c3cncc(C#N)c3Nc3ccc4[nH]ccc4c3)c2)cc1` [Compound 128, 4-(1H-indol-5-ylamino)-5-(4′-methylbiphenyl-3-yl)nicotinonitrile], the IC50 worked out at 130 nM.
